What was measured:
fully base paired RNA = assay: MST binding to fully base paired control RNA; details: microscale thermophoresis
Procedure: Binding Affinity Measurements: Microscale Thermophoresis (MST). Binding affinity measurements were performed on a Monolith NT.115 MST system (NanoTemper Technologies) with Cy5-labeled oligonucleotides. Briefly, Cy5-labeled RNA (5 nM) was prepared in 1× Folding Buffer and folded by heating at 60° C. for 5 min and then slowly cooling to room temperature. After cooling, Tween-20 was added to a final concentration of 0.1% (v/v). Compound solutions were prepared separately in 30 μL of 1× Assay Buffer at a final concentration of 5 μM (1% (v/v) DMSO), followed by 1:1 serial dilutions in 1× Assay Buffer. RNA and compound solutions were then mixed 1:1 by volume.
Samples were incubated for 20 min at room temperature and then loaded into premium capillaries (NanoTemper Technologies, Cat #MO-K025). The following parameters were used for MST measurement: 5-20% LED power (adjusted to keep fluorescence intensity between 8000 and 18000), 80% MST power, Laser-On time=30 s, and Laser-Off time=5 s. The resulting data were analyzed by calculating the change in thermophoresis as a function of compound concentration and fitted by Equation (3) in MST analysis software (NanoTemper Technologies) to yield the dissociation constant (Kd):
where F is the concentration of fluorescently labeled RNA; unbound and bound refer to the thermophoresis signal at completely unbound and bound state of RNA, respectively; c is the concentration of the compound; f (c) is the thermophoresis signal at compound concentration of c; Kd is the dissociation constant.

[1] = test system: seven proteins encoded by genes enriched by Syn-CLIP; assay: Western blot validation of seven proteins encoded by transcripts enriched by Syn-CLIP; type: cell-based, human; details: 2 μM, 48 h; SH-SY5Y
Procedure: Western blotting. After 48 h, cells were gently washed with ice-cold 1× DPBS, and total protein was extracted with Mammalian Protein Extraction Reagent (M-PER, Thermo Scientific) per the manufacturer's protocol. After quantifying protein concentration by using BCA Protein Assay Kit (Pierce Biotechnology), ~30 μg of total protein for each sample was separated using a 10% SDS-polyacrylamide gel and transferred onto a PVDF membrane. The membrane was fixed with 0.4% paraformaldehyde (pH=7.0) for 30 min at room temperature^9 and then blocked with 5% (w/v) non-fat dry milk in 1× TBST (1× TBS containing 0.1% Tween-20) for 1 h at room temperature. […] After washing 10 min each with 1× TBST three times, immunocomplex signals of each protein were detected by using a SuperSignal West Pico Chemiluminescent Substrate (Pierce Biotechnology) according to the manufacturer's protocol. The memebrane was then stripped by using 1× Stripping Buffer (200 mM glycine, pH 2.2, 4 mM SDS, 1% (v/v) Tween 20) at room temperature for 15 min, followed by blocking with 5% (w/v) non-fat dry milk at room temperature for 1 h. β-actin was used to normalize the levels of all proteins, measured by incubating with a primary antibody for β-actin (1:5000, 3700S from Cell Signaling Technology) at 4° C. overnight. […]

| SMILES | binding towards the fully base paired RNA (fully base paired RNA) | effect on seven proteins by Western blot [1] |
| --- | --- | --- |
| O=C(CSc1nnc(-c2ccncc2)n1-c1ccc(Br)cc1)Nc1ccc2cn[nH]c2c1 [Synucleozid-2.0] | no saturable binding | did not affect these seven proteins |
| CCOC(=O)C1=C(Nc2ccccc2)S/C(=C\c2ccc(OCCOCCOCCOCCNC(=O)CCCOc3ccc(-n4c(SCC(=O)Nc5ccc6cn[nH]c6c5)nnc4-c4ccncc4)cc3)c(O)c2)C1=O [Syn-RiboTAC] | no saturable binding | did not affect these seven proteins |

Source: patent US20260325655A1, “DECREASING THE INTRINSICALLY DISORDERED PROTEIN ALPHA-SYNUCLEIN’S LEVELS BY TARGETING ITS STRUCTURED MRNA WITH A RIBONUCLEASE TARGETING CHIMERA” (University of Florida Research Foundation, Incorporated, priority 2023, published 2026)
